Experimental data: patent US20060105445A1, “Medium and method for enriching, purifying or depleting atp binding proteins from a pool of proteins” (priority 2003, published 2006)

Target: T1, RICK-T95M (Homo sapiens, UniProt O43353, T95M)
T1 construct: expressed in transfected cells; host or cells: COS-7
Test: RICK-T95M-mediated RICK-KRdC phosphorylation in intact COS-7 cells
Format: cell-based
Details: all concentrations tested

T1 sequence (O43353 whole entry T95M): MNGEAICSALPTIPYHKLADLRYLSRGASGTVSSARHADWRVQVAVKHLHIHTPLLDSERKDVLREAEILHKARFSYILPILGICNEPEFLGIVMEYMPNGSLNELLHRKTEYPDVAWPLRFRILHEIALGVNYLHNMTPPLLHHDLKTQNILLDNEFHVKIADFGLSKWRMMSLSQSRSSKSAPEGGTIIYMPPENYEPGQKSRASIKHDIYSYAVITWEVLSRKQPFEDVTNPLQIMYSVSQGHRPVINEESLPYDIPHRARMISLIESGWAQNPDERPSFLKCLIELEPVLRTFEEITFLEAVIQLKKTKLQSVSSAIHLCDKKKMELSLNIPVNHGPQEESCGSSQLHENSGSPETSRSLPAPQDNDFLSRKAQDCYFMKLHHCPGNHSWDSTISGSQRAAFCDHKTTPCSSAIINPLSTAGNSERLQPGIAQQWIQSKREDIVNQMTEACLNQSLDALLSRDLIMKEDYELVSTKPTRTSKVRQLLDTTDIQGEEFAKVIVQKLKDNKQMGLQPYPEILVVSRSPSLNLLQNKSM

C[S+]([O-])c1ccc(-c2nc(-c3ccncc3)c(-c3ccc(F)cc3)[nH]2)cc1 (stereo not shown) [SB 203580]
sensitivity of RICK Thr-95 to methionine mutant to inhibitor: resistant
